Test results published in patent US20260138961A1, “MODULATORS OF MITOCHONDRIAL DNA REPLICATION” (Pretzel Therapeutics, Inc., priority 2022, published 2026).
Where a chain is given by its changes, count along the chain named.

Legend:
POLγA:G848S = biological target: T1, POLγA:G848S (Homo sapiens, UniProt P54098, G848S); assay: DNA polymerization assay, POLγA:G848S mutant; assay type: biochemical; details: stimulation of polymerase activity, primed M13mp18 ssDNA, 37° C. 2 hours; read-out: G848S AC50
T1 sequence (P54098 1-1239 G848S): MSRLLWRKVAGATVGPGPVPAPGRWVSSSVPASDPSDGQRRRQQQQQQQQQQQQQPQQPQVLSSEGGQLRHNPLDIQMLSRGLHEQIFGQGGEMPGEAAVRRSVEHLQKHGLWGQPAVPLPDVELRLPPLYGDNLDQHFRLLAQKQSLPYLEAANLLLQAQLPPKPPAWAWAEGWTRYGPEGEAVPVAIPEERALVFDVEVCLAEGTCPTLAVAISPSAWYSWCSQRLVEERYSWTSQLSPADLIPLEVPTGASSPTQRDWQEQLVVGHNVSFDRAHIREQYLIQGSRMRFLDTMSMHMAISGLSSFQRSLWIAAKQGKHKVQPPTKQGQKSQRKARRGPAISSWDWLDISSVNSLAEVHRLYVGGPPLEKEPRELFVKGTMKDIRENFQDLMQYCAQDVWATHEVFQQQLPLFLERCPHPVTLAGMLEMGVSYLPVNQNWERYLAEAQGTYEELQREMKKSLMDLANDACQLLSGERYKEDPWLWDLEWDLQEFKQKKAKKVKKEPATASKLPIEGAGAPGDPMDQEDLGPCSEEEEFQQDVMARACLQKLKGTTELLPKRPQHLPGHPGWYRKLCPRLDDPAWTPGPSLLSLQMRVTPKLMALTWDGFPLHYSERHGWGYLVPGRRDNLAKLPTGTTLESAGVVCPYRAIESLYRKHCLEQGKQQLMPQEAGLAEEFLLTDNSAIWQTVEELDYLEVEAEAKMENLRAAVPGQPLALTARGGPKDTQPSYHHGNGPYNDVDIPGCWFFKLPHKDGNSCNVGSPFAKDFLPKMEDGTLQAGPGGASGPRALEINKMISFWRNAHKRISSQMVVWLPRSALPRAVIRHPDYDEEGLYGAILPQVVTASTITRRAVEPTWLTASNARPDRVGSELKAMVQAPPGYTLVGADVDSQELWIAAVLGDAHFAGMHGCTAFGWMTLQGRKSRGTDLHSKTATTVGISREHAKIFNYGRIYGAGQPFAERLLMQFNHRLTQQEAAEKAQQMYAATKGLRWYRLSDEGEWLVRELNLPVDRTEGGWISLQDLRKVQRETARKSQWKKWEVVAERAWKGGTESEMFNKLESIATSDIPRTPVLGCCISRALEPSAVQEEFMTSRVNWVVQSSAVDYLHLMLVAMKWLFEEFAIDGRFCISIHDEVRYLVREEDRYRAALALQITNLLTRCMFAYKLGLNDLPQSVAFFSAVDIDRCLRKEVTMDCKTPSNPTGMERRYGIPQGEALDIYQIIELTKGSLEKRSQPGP
T1 sequence (Q9UHN1 1-485 partner): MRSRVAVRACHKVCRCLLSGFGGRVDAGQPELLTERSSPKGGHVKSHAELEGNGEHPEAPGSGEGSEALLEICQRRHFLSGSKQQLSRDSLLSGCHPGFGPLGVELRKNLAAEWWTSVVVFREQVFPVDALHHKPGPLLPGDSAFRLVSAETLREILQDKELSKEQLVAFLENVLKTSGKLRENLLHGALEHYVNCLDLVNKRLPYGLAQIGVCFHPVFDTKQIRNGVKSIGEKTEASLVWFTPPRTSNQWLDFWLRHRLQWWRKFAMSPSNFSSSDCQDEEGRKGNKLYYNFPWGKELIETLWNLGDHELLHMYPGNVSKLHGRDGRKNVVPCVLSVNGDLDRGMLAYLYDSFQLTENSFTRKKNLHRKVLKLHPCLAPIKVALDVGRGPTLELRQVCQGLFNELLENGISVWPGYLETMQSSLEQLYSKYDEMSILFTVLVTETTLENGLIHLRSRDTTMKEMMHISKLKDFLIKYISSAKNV
Procedure: DNA Polymerization Assay to Monitor Effects on Human Wildtype POLγ and Four Disease-Causing Mutant Variants of Human POLγ.
The ability of small molecules to stimulate the polymerase activity of POLγ was analyzed in a quantitative fluorescence SYBR Green I assay with fluorescence intensity (FI) readout.
In the presence of dNTPs, wild type human POLγ and mutant derivatives thereof were incubated with single-stranded, circular M13mp18 ssDNA hybridized to a short DNA oligonucleotide that functions as a primer for initiation of DNA synthesis. POLγ and mutant derivatives thereof will extend the primer and use the M13mp18 molecule as a template to synthesize long stretches of double-stranded DNA. SYBR Green I, which is a double-stranded DNA-binding dye, was used to quantify formation of double-stranded DNA in the reaction. When bound to double-stranded DNA, SYBR Green I fluorescence increases by up to 100-fold.
The assay was performed in the 384-well plate format. Upon addition of compounds, changes in double-stranded DNA synthesis activity can be monitored by following effects on fluorescent intensity.
The reactions also contained the accessory POLγB subunit, and the human mitochondrial single-stranded DNA binding protein (mtSSB).
The DNA template mixture used in the assay contained 0.5 nM primed M13 mp18 ssDNA, 400 nM mtSSB, 0.1 mM Tris-HCl (pH 8.0), 0.1 mM dNTP, 10 mM MgCl2, 0.1 mg/mL BSA, 1 mM TCEP solution, and 0.02% Triton X-100. The DNA template mixture for the wild type protein contained either 100 μM dNTP, 1 μM dNTP, or 0.1 μM dNTP, designated in Table 2 as 100 μM, 1 μM, and 0.1 μM, respectfully.
(§1) Microplates with compounds (0.1 μL in each well) to be tested in the assay were prepared from 10 mM compound stocks in 100% DMSO, and equal amounts of DMSO without any compound were added to positive and negative control wells.
The protein mixture was dispensed (5 μL into each well) into compound plates and incubated at 37° C. for 15 minutes. After incubation, 5 μL of the DNA template mixture was dispensed into each well. The plates were then incubated at 37° C. for 2 hours.
(§2) During incubation, a combined stop buffer and detection reagent solution was prepared. The buffer contained 25 mM EDTA (pH 8.0), 0.02% Triton X-100, and SYBR Green I [Invitrogen] diluted 10,000× (for fluorescent readout). EDTA will stop the enzymatic reaction by chelating magnesium ions.

[1] = biological target: T2, human POLγ 3′-5′ exonuclease activity (Homo sapiens, UniProt P54098); assay: Exonuclease inhibition assay with human POLγ (SYBR Green I fluorescence); assay type: biochemical; details: POLγA 1 nM, POLγB 1.3 nM, 5 nM exonuclease template, no dNTPs, 37° C. 2.5 hours
T2 sequence (P54098 1-1239): T1 sequence (P54098 1-1239 G848S) with S848G
T2 sequence (Q9UHN1 1-485 partner): T1 sequence (Q9UHN1 1-485 partner)
Procedure: Exonuclease inhibition assay with human POLγ.
The ability of small molecules to inhibit the 3′-5′ exonuclease activity of POLγ was analyzed in a quantitative fluorescence SYBR Green I assay with fluorescence intensity (FI) readout.
Human POLγ was incubated with a linear, partially double-stranded template containing an 85 base pair double-stranded DNA stretch and a 15 nucleotides long single-stranded 5′-tail (hereafter referred to as the “exonuclease template”). […] When bound to double-stranded DNA, SYBR Green I fluorescence increases by up to 100-fold. In the absence of deoxynucleotide triphosphates (dNTPs), the exonuclease activity of POLγ degrades the 85-mer strand, which leads to the formation of single-stranded DNA (ssDNA) and decreased fluorescent intensity. The assay was performed in a 384-well plate format.
The exonuclease template used was generated by hybridization of a 100 nucleotides long, single-stranded DNA molecule with an inverted dT at the 3′-end (5′-TTTTTTTTTATCCGGGCTCGTTATCTAAGCTGCTCTTGGTAGGCATTGACGTCCATACTGCAAATTCAGCTCTGTGCAGTTAGGCAGGAGTCTACAAGC invT-3′) to an 85 nucleotides long single-stranded DNA molecule (5′-AGCTTGTAGACTCCTGCCTAACTGCACAGAGCTGAATTTGCAGTATGGACGTCAATGCCTACCAGAGCAGCTTAGATAACGAGC-3′), using a Bio-Rad T100 Thermal Cycler. The inverted dT is characterized by a 3′-3′ linkage, which inhibits both degradation of the 3′-5′ exonuclease activity and extension by DNA polymerases.
POLγ is an heterotrimer of one POLγA subunit (harboring exonuclease and DNA polymerase activities) and two accessory POLγB subunits. Proteins used in the exonuclease assay were POLγA (NP_002684) and POLγB (NP_009146).
The protein mixture used in the assays contained POLγA (1 nM), POLγB (1.3 nM, concentration calculated as a dimer), 25 mM Tris-HCl (pH 8.0), 0.1 mg/mL bovine serum albumin, 1 mM Bond-Breaker TCEP solution (pH 7) [Thermo Fisher], 25 mM NaCl, and 0.02% Triton X-100.
The DNA template mixture used in the assay contained 5 nM of the exonuclease template, 25 mM Tris-HCl (pH 8.0), 10 mM MgCl2, 0.1 mg/mL bovine serum albumin, 1 mM Bond-Breaker TCEP solution [Thermo Fisher], and 0.02% Triton X-100.
as §1
The protein mixture containing POLγ was dispensed (5 μL in each well) into compound plates and incubated at 37° C. for 15 minutes to allow compound binding to the POLγ complex. After incubation, 5 μL of the DNA template mixture was dispensed into each well. The plates were incubated at 37° C. for 2.5 hours.
as §2
After the 2.5-hour incubation period, the SYBR Green I solution was added (10 μL) to the screening plates and the plates were incubated at room temperature in the dark for 20 minutes before the fluorescent signal was read between […] on a BMG Pherastar microtiter plate reader.

AC50 (POLγA:G848S) [µM]	IC50 [1] [µM]	Compound
> 100	–	Cc1cc(S(=O)(=O)Nc2cccc(C(=O)N[C@@H](C)c3ccccc3)c2)c(C)cc1Cl [Example 45, (S)-3-((4-chloro-2,5-dimethylphenyl)sulfonamido)-N-(1-phenylethyl)benzamide]
–	7	Cc1cc(S(=O)(=O)Nc2cccc(-c3nc(C4CC4)cn3C)c2)c(C)cc1Cl [Example 186, 4-chloro-N-(3-(4-cyclopropyl-1-methyl-1H-imidazol-2-yl)phenyl)-2,5-dimethylbenzenesulfonamide]
